Assay results from patent US20230278987A1, “Antimicrobial Compounds and Methods” (Curza Global, LLC, priority 2019, published 2023).
Values after ≈ are worked out from the molar mass of the structure shown. Structures can show the parent of a compound that is named as a salt. Where two headings read alike, the source gives them in different places.

Columns and labels:
[1] = system: A.baumannii (Ab); assay: Broth microdilution MIC against A.baumannii (Ab); format: cell-based; conditions: Acinetobacter baumannii
How it was run: (§1)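 Susceptibility testing used a CLSI-based broth microdilution in CAMHB, with bicarbonate (6.25 or 25 mM final) or human serum (0-50%) as optional supplements. Each compound was run in triplicate at 5 × 10^4 CFU/well.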

[2] = system: E.coli (Ec); assay: Broth microdilution MIC against E.coli (Ec); format: cell-based; conditions: Escherichia coli
How it was run: as §1

[3] = system: E.coli S30 extract (bacterial protein synthesis); assay: E.coli S30 extract: inhibition of bacterial protein synthesis (luciferase); format: biochemical; conditions: 37° C. for 1 hour
How it was run: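 Compounds (8-point 2-fold series) were incubated 1 h at 37 °C with E. coli S30 extract, premix, amino acids and pBESTluc plasmid. Reactions were chilled, luciferase reagent added and luminescence measured. Inhibition expressed relative to water controls; background from reactions lacking DNA.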

[4] = system: E.faecalis (Ef); assay: Broth microdilution MIC against E.faecalis (Ef); format: cell-based; conditions: Enterococcus faecalis
How it was run: as §1

[5] = molecular target: Rabbit Reticulocyte Lysate (eukaryotic protein synthesis); assay: Rabbit Reticulocyte Lysate: inhibition of eukaryotic protein synthesis (luciferase); format: biochemical; conditions: 30° C. for 90 minutes, read-out: retic. IC50
How it was run: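 Nuclease-treated rabbit reticulocyte lysate translating luciferase control RNA, incubated 90 min at 30° C with eight 2-fold compound dilutions. Luminescence measured after adding luciferase reagent; % inhibition relative to no-inhibitor wells, with no-RNA wells as background.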

[6] = system: S.aureus (Sa); assay: Broth microdilution MIC against S.aureus (Sa); format: cell-based; conditions: Staphylococcus aureus
How it was run: as §1

[7] = system: P.aeruginosa (Pa); assay: Broth microdilution MIC against P.aeruginosa (Pa); format: cell-based; conditions: Pseudomonas aeruginosa
How it was run: as §1

[8] = read-out: Ab +bicarb 6.25 (MIC)
[9] = read-out: E. coli + bicarb 6.25 (MIC)
[10] = read-out: Ef +bicarb 6.25 (MIC)
[11] = read-out: Sa + bicarb 6.25 (MIC)
[12] = read-out: Pa +bicarb 6.25 (MIC)
[13] = CAMHB supplemented with sodium bicarbonate 6.25 mM, read-out: Ab +bicarb 6.25 (MIC)
[14] = CAMHB supplemented with sodium bicarbonate 6.25 mM, read-out: E. coli + bicarb 6.25 (MIC)
[15] = CAMHB supplemented with sodium bicarbonate 6.25 mM, read-out: Ef +bicarb 6.25 (MIC)
[16] = CAMHB supplemented with sodium bicarbonate 6.25 mM, read-out: Sa + bicarb 6.25 (MIC)
[17] = CAMHB supplemented with sodium bicarbonate 6.25 mM, read-out: Pa +bicarb 6.25 (MIC)

| Compound | IC50 [3] | IC50 [5] | MIC [1, 13] | MIC [2, 14] | MIC [4, 15] | MIC [6, 16] | MIC [7, 17] | other results |
| --- | --- | --- | --- | --- | --- | --- | --- | --- |
| CC(C)(N)C(=O)N1CCN(C(=O)Nc2ccn(-c3ccc4c(c3)CCC(N[C@@H]3CC[C@@H](N)C3)C4)c(=O)n2)CC1 (stereo partly drawn) [Compound 25] | < 0.5 µM | ≥ 1 µM |  |  |  |  |  | MIC [1, 8]: > 32 µg/mL; MIC [2, 9]: < 8 µg/mL; MIC [4, 10]: > 32 µg/mL; MIC [6, 11]: < 8 µg/mL; MIC [7, 12]: > 32 µg/mL |
| CC(C)(N)C(=O)N1CCN(C(=O)Nc2ccn(-c3ccc4c(c3)CCC(N[C@H]3CC[C@@H](N)C3)C4)c(=O)n2)CC1 (stereo partly drawn) [Compound 26] | < 0.5 µM | ≥ 1 µM | > 32 µg/mL | < 8 µg/mL | > 32 µg/mL | < 8 µg/mL | > 32 µg/mL |  |
| CC(C)(N)C(=O)N1CCN(C(=O)Nc2ccn(-c3ccc4c(c3)CCC(N[C@H]3C[C@H](N)C3)C4)c(=O)n2)CC1 (stereo partly drawn) [Compound 29] | < 0.5 µM | ≥ 1 µM | > 32 µg/mL | < 8 µg/mL | 8 to 32 µg/mL (≈ 15.3 to 61.2 µM) | < 8 µg/mL | > 32 µg/mL |  |
| CC(C)(N)C(=O)N1CCN(C(=O)Nc2ccn(-c3ccc4c(c3)CCC(N[C@H]3C[C@@H](N)C3)C4)c(=O)n2)CC1 (stereo partly drawn) [Compound 30, 4-Amino-2-Methylpropanoyl)-N-(1-(6-(((Cis-3-Aminocyclobutyl)Amino)-5,6,7,8-Tetrahydronaphthalen-2-Yl)-2-Oxo-1,2-Dihydropyrimidin-4-Yl)Piperazine-1-Carboxamide Hydrochloride Salt] | < 0.5 µM | ≥ 1 µM | > 32 µg/mL | < 8 µg/mL | 8 to 32 µg/mL | < 8 µg/mL | > 32 µg/mL |  |
| CC(C)(N)C(=O)N1CCN(C(=O)Nc2ccn(-c3ccc4c(c3)CCC(NC[C@H]3C[C@H](N)C3)C4)c(=O)n2)CC1 (stereo partly drawn) [Compound 31] | < 0.5 µM | ≥ 1 µM | > 32 µg/mL | < 8 µg/mL | 8 to 32 µg/mL (≈ 14.9 to 59.6 µM) | < 8 µg/mL | > 32 µg/mL |  |
| CC(C)(N)C(=O)N1CCN(C(=O)Nc2ccn(-c3ccc4c(c3)CCC(NC[C@H]3C[C@@H](N)C3)C4)c(=O)n2)CC1 (stereo partly drawn) [Compound 32] | < 0.5 µM | ≥ 1 µM | > 32 µg/mL | < 8 µg/mL | 8 to 32 µg/mL (≈ 14.9 to 59.6 µM) | < 8 µg/mL | > 32 µg/mL |  |
| CC(C)(N)C(=O)N1CCN(C(=O)Nc2ccn(-c3ccc4c(c3)CCN(C3CCC(N)CC3)C4)c(=O)n2)CC1 (stereo not drawn) [Compound 35] | < 0.5 µM | ≥ 1 µM | > 32 µg/mL | < 8 µg/mL | > 32 µg/mL | < 8 µg/mL | > 32 µg/mL |  |
| CC(C)(N)C(=O)N1CCN(C(=O)Nc2ccn(-c3ccc4c(c3)CC(N[C@H]3CC[C@H](N)C3)C4)c(=O)n2)CC1 (stereo partly drawn) [Compound 36, Hydrochloride Salt] | < 0.5 µM | < 0.5 µM | > 32 µg/mL | < 8 µg/mL | > 32 µg/mL | 8 to 32 µg/mL | > 32 µg/mL |  |
| CC(C)(N)C(=O)N1CCN(C(=O)Nc2ccn(-c3ccc4c(c3)CC(NC[C@H]3C[C@H](N)C3)C4)c(=O)n2)CC1 (stereo partly drawn) [Compound 37, Hydrochloride Salt] | < 0.5 µM | ≥ 1 µM | > 32 µg/mL | < 8 µg/mL | > 32 µg/mL | 8 to 32 µg/mL | > 32 µg/mL |  |
| CC(C)(N)C(=O)N1CCN(C(=O)Nc2ccn(-c3ccc4c(c3)CC(N[C@H]3CC[C@H](N)CC3)C4)c(=O)n2)CC1 (stereo partly drawn) [Compound 38, Hydrochloride Salt] | < 0.5 µM | ≥ 1 µM | > 32 µg/mL | < 8 µg/mL | > 32 µg/mL | 8 to 32 µg/mL | > 32 µg/mL |  |
| CC(C)(N)C(=O)N1CCN(C(=O)Nc2ccn(-c3ccc4c(c3)CCC(N3CC(N)C3)C4)c(=O)n2)CC1 (stereo not drawn) [Compound 39] | 0.5 to 1 µM | ≥ 1 µM | > 32 µg/mL | 8 to 32 µg/mL | > 32 µg/mL | 8 to 32 µg/mL | > 32 µg/mL |  |
| CC(C)(N)C(=O)N1CCN(C(=O)Nc2ccn(-c3ccc4c(c3)CCC(N3CC(CN)C3)C4)c(=O)n2)CC1 (stereo not drawn) [Compound 40, Hydrochloride Salt] | < 0.5 µM | ≥ 1 µM | > 32 µg/mL | < 8 µg/mL | 8 to 32 µg/mL | < 8 µg/mL | > 32 µg/mL |  |
| CC(C)(N)C(=O)N1CCN(C(=O)Nc2ccn(-c3ccc4c(c3)CCC(N3CCC(CCN)CC3)C4)c(=O)n2)CC1 (stereo not drawn) [Compound 42, 4-(2-Amino-2-methylpropanoyl)-N-(1-(6-(4-(2-aminoethyl)piperidin-1-yl)-5,6,7,8-tetrahydronaphthalen-2-yl)-2-oxo-1,2-dihydropyrimidin-4-yl)piperazine-1-carboxamide hydrochloride salt] | ≥ 1 µM | ≥ 1 µM |  |  |  |  |  | MIC [1, 8]: > 32 µg/mL; MIC [2, 9]: < 8 µg/mL; MIC [4, 10]: > 32 µg/mL; MIC [6, 11]: 8 to 32 µg/mL; MIC [7, 12]: > 32 µg/mL |
| CC(C)(N)C(=O)N1CCN(C(=O)Nc2ccn(-c3ccc4c(c3)CCC(N3CCCC(N)CC3)C4)c(=O)n2)CC1 (stereo not drawn) [Compound 43] | < 0.5 µM | ≥ 1 µM | > 32 µg/mL | < 8 µg/mL | > 32 µg/mL | < 8 µg/mL | > 32 µg/mL | MIC ([1]; CAMHB supplemented with sodium bicarbonate 25 mM, read-out: Ab +bicarb 25 (MIC)): 8 to 32 µg/mL (≈ 14.5 to 58.1 µM); MIC ([2]; CAMHB supplemented with sodium bicarbonate 25 mM, read-out: E.coli + bicarb 25 (MIC)): < 8 µg/mL; MIC ([4]; CAMHB supplemented with sodium bicarbonate 25 mM, read-out: Ef +bicarb 25 (MIC)): < 8 µg/mL; MIC ([6]; CAMHB supplemented with sodium bicarbonate 25 mM, read-out: Sa + bicarb 25 (MIC)): < 8 µg/mL; MIC ([7]; CAMHB supplemented with sodium bicarbonate 25 mM, read-out: Pa +bicarb 25 (MIC)): 8 to 32 µg/mL (≈ 14.5 to 58.1 µM) |
| COC(=O)N[C@H]1CC[C@H](NC2CCc3cc(-n4ccc(NC(=O)N5CCN(C(=O)C(C)(C)N)CC5)nc4=O)ccc3C2)C1 (stereo partly drawn) [Compound 45, Methyl ((1S,3S)-3-((6-(4-(4-(2-amino-2-methylpropanoyl)piperazine-1-carboxamido)-2-oxopyrimidin-1(2H)-yl)-1,2,3,4-tetrahydronaphthalen-2-yl)amino)cyclopentyl)Carbamate Hydrochloride Salt] | ≥ 1 µM | ≥ 1 µM |  |  |  |  |  | MIC [1, 8]: > 32 µg/mL; MIC [2, 9]: > 32 µg/mL; MIC [4, 10]: > 32 µg/mL; MIC [6, 11]: > 32 µg/mL; MIC [7, 12]: > 32 µg/mL |
| CC(C)(N)C(=O)N1CCN(C(=O)Nc2ccn(-c3ccc4c(c3)CN([C@H]3CC[C@H](N)CC3)C4)c(=O)n2)CC1 [Compound 46, 4-(2-amino-2-methylpropanoyl)-N-(1-(2-((trans)-4-aminocyclohexyl)isoindolin-5-yl)-2-oxo-1,2-dihydropyrimidin-4-yl)piperazine-1-carboxamide hydrochloride salt] | < 0.5 µM | ≥ 1 µM |  |  |  |  |  | MIC ([1]; read-out: Ab +bicarb 25 (MIC)): 8 to 32 µg/mL; MIC ([2]; read-out: E.coli + bicarb 25 (MIC)): < 8 µg/mL; MIC ([4]; read-out: Ef +bicarb 25 (MIC)): 8 to 32 µg/mL; MIC ([6]; read-out: Sa + bicarb 25 (MIC)): < 8 µg/mL; MIC ([7]; read-out: Pa +bicarb 25 (MIC)): 8 to 32 µg/mL |
